From article PMC4505863 (ACS Chemical Neuroscience, 2014)
Where two headings read alike, the source gives them in different places.

Experiments:
5-HT2B = 5-HT2B (Homo sapiens, UniProt P41595); test: PDSP screening affinity 5-HT2B; format: binding
5-HT7 = 5-HT7 (Homo sapiens, UniProt P34969); test: PDSP screening affinity 5-HT7; format: binding
h5-HT2A = h5-HT2A (Homo sapiens, UniProt P28223); test: Ca2+ mobilization assay; format: cell-based
5-HT2A receptor [1] = target: T1, 5-HT2A receptor (Homo sapiens, UniProt P28223); test: h5-HT2A affinity, antagonist radioligand [3H]ketanserin; format: binding
T1 sequence (P28223 whole entry): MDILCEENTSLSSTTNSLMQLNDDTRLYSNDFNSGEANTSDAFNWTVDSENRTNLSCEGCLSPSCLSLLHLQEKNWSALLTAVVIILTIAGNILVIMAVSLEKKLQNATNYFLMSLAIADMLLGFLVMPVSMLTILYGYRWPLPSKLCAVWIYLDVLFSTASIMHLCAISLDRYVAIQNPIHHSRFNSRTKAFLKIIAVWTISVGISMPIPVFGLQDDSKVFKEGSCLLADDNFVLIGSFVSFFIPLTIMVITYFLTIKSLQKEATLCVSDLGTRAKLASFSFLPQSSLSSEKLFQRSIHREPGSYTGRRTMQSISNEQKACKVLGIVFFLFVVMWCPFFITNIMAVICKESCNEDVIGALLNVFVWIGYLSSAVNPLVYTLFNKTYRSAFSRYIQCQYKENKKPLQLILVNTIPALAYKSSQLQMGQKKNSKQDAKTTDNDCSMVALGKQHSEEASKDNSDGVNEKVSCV

human 5-HT2C receptor [2] = target: T2, human 5-HT2C receptor (Homo sapiens, UniProt P28335); test: h5-HT2C affinity, agonist radioligand [125I]DOI; format: binding
T2 sequence (P28335 33-458): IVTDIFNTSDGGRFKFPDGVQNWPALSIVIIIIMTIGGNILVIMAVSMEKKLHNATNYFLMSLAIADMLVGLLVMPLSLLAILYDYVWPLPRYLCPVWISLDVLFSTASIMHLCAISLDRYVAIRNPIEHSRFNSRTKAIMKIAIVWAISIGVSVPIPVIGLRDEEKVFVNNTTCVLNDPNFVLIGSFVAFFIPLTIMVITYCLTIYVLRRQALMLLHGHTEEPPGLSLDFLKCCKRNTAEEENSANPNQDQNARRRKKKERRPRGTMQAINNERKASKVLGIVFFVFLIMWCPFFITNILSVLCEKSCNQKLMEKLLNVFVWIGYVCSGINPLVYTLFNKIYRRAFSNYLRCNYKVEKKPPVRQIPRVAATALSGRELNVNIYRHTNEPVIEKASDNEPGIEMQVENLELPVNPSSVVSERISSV

5-HT3 = target: T3, 5-HT3 (Homo sapiens, UniProt P46098); test: PDSP screening affinity 5-HT3; format: binding
T3 sequence (P46098 24-478): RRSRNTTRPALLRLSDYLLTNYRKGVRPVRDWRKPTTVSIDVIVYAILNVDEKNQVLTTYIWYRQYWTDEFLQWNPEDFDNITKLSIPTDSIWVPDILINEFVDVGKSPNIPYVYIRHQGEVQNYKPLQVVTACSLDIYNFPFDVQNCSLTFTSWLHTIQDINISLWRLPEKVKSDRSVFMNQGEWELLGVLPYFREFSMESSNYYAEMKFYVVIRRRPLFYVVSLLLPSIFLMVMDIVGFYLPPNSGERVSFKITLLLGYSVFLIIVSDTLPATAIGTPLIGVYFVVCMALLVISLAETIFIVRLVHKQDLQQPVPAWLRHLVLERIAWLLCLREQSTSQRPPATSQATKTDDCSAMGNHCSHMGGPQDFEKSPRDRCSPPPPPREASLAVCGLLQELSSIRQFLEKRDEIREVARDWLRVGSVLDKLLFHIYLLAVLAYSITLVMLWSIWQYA

5-HT1A = target: T4, 5-HT1A (Homo sapiens, UniProt P08908); test: PDSP screening affinity 5-HT1A; format: binding
T4 sequence (P08908 1-422): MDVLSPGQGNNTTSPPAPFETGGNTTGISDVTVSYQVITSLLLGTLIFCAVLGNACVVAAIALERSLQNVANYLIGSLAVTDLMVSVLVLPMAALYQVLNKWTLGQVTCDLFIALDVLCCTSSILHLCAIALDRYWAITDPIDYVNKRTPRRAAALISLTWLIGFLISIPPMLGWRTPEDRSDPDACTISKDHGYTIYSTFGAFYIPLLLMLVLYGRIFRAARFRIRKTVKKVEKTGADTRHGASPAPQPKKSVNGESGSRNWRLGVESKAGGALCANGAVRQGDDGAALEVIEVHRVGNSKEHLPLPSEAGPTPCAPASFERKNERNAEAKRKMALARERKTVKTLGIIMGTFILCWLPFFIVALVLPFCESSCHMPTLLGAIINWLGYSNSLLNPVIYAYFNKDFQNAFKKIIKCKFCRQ

5-ht5a = 5-ht5a (Homo sapiens, UniProt P47898); test: PDSP screening affinity 5-ht5a; format: binding
Chain of 5-ht5a (P47898 whole entry): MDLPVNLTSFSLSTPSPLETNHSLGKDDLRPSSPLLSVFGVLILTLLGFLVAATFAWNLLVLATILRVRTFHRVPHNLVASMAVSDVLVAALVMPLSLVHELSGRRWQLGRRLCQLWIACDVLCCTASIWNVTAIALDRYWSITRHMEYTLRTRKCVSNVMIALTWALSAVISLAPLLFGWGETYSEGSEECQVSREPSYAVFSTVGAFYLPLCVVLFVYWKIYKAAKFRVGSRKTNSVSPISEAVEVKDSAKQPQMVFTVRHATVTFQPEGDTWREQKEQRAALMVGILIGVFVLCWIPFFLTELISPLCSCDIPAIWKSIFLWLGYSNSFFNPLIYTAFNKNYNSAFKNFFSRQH

r5-HT2C = target: T5, r5-HT2C (Rattus norvegicus, UniProt P08909); test: Ca2+ mobilization assay; format: cell-based
T5 sequence (P08909 33-460): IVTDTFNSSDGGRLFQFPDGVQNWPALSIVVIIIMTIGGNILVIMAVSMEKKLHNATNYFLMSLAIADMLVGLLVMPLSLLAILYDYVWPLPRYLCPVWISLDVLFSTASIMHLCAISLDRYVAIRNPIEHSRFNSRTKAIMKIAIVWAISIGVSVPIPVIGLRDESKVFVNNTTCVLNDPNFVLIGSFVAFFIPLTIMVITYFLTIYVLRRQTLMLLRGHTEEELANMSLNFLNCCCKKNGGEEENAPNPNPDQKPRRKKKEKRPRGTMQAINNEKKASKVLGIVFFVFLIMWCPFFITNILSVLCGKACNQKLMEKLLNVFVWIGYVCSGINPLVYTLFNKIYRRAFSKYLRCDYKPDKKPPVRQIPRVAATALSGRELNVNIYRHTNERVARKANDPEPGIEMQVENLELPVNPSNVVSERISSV

5-HT6 = 5-HT6 (Homo sapiens, UniProt P50406); test: PDSP screening affinity 5-HT6; format: binding
Chain of 5-HT6 (P50406 whole entry): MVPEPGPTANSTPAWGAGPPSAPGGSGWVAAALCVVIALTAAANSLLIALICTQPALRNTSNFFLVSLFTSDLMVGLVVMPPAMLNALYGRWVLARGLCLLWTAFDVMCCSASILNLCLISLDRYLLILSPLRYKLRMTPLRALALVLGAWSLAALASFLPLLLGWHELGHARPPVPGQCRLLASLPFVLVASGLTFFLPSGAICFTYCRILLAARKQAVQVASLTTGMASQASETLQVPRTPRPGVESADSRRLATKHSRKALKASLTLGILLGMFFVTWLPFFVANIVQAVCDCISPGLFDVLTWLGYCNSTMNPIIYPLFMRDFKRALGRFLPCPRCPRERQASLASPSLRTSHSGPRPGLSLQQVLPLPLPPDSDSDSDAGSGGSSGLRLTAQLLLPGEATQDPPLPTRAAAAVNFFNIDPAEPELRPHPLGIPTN

h5-HT2C = target: T6, h5-HT2C (Homo sapiens, UniProt P28335); test: Ca2+ mobilization assay; format: cell-based
T6 sequence (P28335 33-458): T2 sequence (P28335 33-458)

r5-HT2A = r5-HT2A (Rattus norvegicus, UniProt P14842); test: Ca2+ mobilization assay; format: cell-based
Chain of r5-HT2A (P14842 whole entry): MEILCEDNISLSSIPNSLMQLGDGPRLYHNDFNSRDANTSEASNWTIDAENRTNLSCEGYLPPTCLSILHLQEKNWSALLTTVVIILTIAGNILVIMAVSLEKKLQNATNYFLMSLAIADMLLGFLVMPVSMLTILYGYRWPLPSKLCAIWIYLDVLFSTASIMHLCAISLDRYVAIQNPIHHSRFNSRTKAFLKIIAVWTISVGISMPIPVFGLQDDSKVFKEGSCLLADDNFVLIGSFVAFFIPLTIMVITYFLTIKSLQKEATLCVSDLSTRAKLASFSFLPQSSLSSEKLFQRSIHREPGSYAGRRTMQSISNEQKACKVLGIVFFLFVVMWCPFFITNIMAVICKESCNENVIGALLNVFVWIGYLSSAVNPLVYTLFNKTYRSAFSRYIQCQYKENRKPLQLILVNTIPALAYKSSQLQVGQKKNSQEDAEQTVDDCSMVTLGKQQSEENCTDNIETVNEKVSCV

h5-HT2B = h5-HT2B (Homo sapiens, UniProt P41595); test: Ca2+ mobilization assay; format: cell-based
Chain of h5-HT2B (P41595 whole entry): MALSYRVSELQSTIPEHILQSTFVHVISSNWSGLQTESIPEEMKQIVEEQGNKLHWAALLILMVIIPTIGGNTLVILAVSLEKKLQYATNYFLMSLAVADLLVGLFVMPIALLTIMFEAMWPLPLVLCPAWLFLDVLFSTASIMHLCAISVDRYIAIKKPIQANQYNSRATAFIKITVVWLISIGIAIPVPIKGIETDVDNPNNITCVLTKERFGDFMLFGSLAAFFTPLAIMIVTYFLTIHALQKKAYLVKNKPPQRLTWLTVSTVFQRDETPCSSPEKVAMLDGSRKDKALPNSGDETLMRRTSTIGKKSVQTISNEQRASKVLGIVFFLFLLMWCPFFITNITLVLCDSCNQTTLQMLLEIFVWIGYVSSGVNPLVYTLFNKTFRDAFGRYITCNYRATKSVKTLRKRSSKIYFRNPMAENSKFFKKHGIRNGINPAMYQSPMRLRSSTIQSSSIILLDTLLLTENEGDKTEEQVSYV

5-ht1e = 5-ht1e (Homo sapiens, UniProt P28566); test: PDSP screening affinity 5-ht1e; format: binding
Chain of 5-ht1e (P28566 whole entry): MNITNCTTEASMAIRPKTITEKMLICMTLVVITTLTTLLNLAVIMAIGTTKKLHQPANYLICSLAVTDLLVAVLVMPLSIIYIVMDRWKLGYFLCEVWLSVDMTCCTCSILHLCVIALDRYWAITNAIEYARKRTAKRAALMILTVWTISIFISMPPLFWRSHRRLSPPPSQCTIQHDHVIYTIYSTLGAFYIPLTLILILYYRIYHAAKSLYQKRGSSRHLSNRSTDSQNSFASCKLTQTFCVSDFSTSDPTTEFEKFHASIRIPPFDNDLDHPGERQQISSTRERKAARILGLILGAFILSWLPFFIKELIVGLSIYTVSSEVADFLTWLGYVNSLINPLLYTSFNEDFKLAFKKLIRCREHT

5-HT1B = 5-HT1B (Homo sapiens, UniProt P28222); test: PDSP screening affinity 5-HT1B; format: binding
Chain of 5-HT1B (P28222 whole entry): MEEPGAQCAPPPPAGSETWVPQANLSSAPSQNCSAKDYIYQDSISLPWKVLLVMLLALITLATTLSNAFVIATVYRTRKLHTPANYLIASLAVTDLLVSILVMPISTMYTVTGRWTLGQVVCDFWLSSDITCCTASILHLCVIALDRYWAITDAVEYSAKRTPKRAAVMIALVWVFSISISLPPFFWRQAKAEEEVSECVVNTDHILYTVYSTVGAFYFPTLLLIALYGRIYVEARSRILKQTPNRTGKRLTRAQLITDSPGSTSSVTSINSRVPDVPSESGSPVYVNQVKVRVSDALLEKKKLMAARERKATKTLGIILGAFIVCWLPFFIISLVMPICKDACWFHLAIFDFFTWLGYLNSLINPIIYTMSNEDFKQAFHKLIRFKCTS

5-HT2A receptor [3] = target: T1, 5-HT2A receptor; test: h5-HT2A affinity, agonist radioligand [125I]DOI; format: binding
human 5-HT2C receptor [4] = target: T2, human 5-HT2C receptor; test: h5-HT2C affinity, antagonist radioligand [3H]mesulergine; format: binding
Male C57BL/6J mice = test: Mouse head twitch response; conditions: for max counts: HTR counts
5-HT1D = 5-HT1D (Homo sapiens, UniProt P28221); test: PDSP screening affinity 5-HT1D; format: binding
Chain of 5-HT1D (P28221 whole entry): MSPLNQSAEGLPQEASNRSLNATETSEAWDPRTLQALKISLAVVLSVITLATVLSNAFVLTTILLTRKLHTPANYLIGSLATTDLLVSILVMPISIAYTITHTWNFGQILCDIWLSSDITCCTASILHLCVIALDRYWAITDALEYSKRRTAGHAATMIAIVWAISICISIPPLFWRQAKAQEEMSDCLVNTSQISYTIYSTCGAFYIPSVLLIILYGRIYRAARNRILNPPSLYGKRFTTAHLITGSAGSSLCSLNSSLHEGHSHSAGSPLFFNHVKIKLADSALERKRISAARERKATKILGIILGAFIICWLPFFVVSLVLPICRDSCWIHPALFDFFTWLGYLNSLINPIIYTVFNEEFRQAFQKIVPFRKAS

[5] = percentage of the maximum response to 5-HT
[6] = [125I]DOI, n = 3–5 displacement curves

Chain of 5-HT2B (P41595 whole entry): as the sequence (P41595 whole entry) above
Chain of 5-HT7 (P34969 whole entry): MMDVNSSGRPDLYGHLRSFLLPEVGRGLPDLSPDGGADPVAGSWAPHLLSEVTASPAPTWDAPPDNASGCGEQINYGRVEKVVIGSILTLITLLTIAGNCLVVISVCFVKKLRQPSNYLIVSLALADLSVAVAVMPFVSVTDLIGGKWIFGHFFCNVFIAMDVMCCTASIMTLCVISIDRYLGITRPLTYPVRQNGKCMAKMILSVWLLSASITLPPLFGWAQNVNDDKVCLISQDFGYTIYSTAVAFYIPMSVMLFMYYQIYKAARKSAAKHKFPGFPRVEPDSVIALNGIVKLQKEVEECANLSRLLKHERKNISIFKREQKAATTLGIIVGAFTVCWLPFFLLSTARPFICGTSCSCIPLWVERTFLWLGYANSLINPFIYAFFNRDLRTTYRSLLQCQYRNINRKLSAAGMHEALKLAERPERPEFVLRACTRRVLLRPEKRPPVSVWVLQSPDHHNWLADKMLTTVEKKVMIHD
Chain of h5-HT2A (P28223 whole entry): as the sequence (P28223 whole entry) above

COc1ccc2[nH]cc(CCNCc3cccc(C)c3)c2c1 [Compound 5j, N-(3-Methylbenzyl)-2-(5-methoxy-1H-indol-3-yl)ethan-1-amine]
5-HT2B pKi ± SEM (5-HT2B): 8.71 ± 0.03 | Ki (5-HT2B; read-out: 5-HT2B affinity): 1.9 nM | 5-HT7 pKi ± SEM (5-HT7): 6.67 ± 0.05 | Ki (5-HT7; read-out: 5-HT7 affinity): 212 nM | h5-HT2A pEC50 ± SEM (h5-HT2A; Ca2+ mobilization): 8.2 ± 0.04 | selectivity in function h5-HT2A vs h5-HT2C (h5-HT2A; Ca2+ mobilization): 44 fold | h5-HT2A Emax (h5-HT2A; [5]): 73.3 ± 1.0% | EC50 (h5-HT2A; read-out: h5-HT2A EC50, Ca2+ mobilization): 6.5 nM | h5-HT2A pKi ± SEM (5-HT2A receptor [1]; [3H]ketanserin, n = 3–5 displacement curves): 8.32 ± 0.17 | Ki (5-HT2A receptor [1]; read-out: h5-HT2A Ki, [3H]ketanserin): 4.79 nM | h5-HT2C pKi ± SEM (human 5-HT2C receptor [2]; [6]): 8.47 ± 0.08 | Ki (human 5-HT2C receptor [2]; read-out: h5-HT2C Ki, [125I]DOI): 3.39 nM | Ki (5-HT3; read-out: 5-HT3 affinity, PDSP screening, human): > 10000 nM | 5-HT1A pKi ± SEM (5-HT1A): 6.57 ± 0.04 | Ki (5-HT1A; read-out: 5-HT1A affinity): 271 nM | 5-ht5a pKi ± SEM (5-ht5a): 5.41 ± 0.06 | Ki (5-ht5a; read-out: 5-ht5a affinity): 3850 nM | r5-HT2C pEC50 ± SEM (r5-HT2C; Ca2+ mobilization): 6.72 ± 0.04 | r5-HT2C Emax (r5-HT2C; [5]): 104 ± 2% | EC50 (r5-HT2C; read-out: r5-HT2C EC50, Ca2+ mobilization): 192 nM | 5-HT6 pKi ± SEM (5-HT6): 7.21 ± 0.03 | Ki (5-HT6; read-out: 5-HT6 affinity): 62 nM | h5HT2C pEC50 ± SEM (h5-HT2C; Ca2+ mobilization): 6.54 ± 0.10 | h5HT2C Emax (h5-HT2C; [5]): 75 ± 4% | EC50 (h5-HT2C; read-out: h5HT2C EC50, Ca2+ mobilization): 289 nM | r5-HT2A pEC50 ± SEM (r5-HT2A; Ca2+ mobilization): 7.6 ± 0.04 | r5-HT2A Emax (r5-HT2A; [5]): 56.2 ± 0.9% | EC50 (r5-HT2A; read-out: r5-HT2A EC50, Ca2+ mobilization): 26 nM | h5-HT2B pEC50 ± SEM (h5-HT2B; Ca2+ mobilization, NA = not active, Emax ≤ 15%): NA ^b (NA, not active; Emax ≤ 15%) | 5-ht1e pKi ± SEM (5-ht1e; PDSP screening, human): 5.41 ± 0.05 | Ki (5-ht1e; read-out: 5-ht1e affinity, PDSP screening, human): 3880 nM | 5-HT1B pKi ± SEM (5-HT1B): 5.37 ± 0.07 | Ki (5-HT1B; read-out: 5-HT1B affinity): 4240 nM | h5-HT2A pKi ± SEM (5-HT2A receptor [3]; [6]): 8.93 ± 0.11 | selectivity h5-HT2A versus h5-HT2C, affinity at the [125I]-DOI-labeled receptors (5-HT2A receptor [3]; agonist-labeled receptors): < 3 fold | Ki (5-HT2A receptor [3]; read-out: h5-HT2A Ki, [125I]DOI): 1.17 nM | h5-HT2C pKi ± SEM (human 5-HT2C receptor [4]; [3H]mesulergine, n = 3–5 displacement curves): 7.65 ± 0.03 | Ki (human 5-HT2C receptor [4]; read-out: h5-HT2C Ki, [3H]mesulergine): 22.4 nM | max counts (Male C57BL/6J mice; SC): 14.6 | active doses (Male C57BL/6J mice; SC, mouse head twitch): 10 mg/kg | magnitude of peak effect × vehicle (Male C57BL/6J mice; SC, mouse head twitch): 3.5 × vehicle | maximally effective dose (Male C57BL/6J mice; SC, mouse head twitch): 10 mg/kg | HTR at 30 mg/kg (Male C57BL/6J mice; biphasic bell-shaped dose–response, 30 mg/kg SC): inactive | 5-HT1D pKi ± SEM (5-HT1D; PDSP screening, human): 6.55 ± 0.06 | Ki (5-HT1D; read-out: 5-HT1D affinity, PDSP screening, human): 283 nM

COc1cc(CCNCc2ccccc2Br)c(OC)cc1I [Compound 4c, N-(2-Bromobenzyl)-2-(4-iodo-2,5-dimethoxyphenyl)ethan-1-amine]
Ki (5-HT2B; 5-HT2B affinity): 20 nM | Ki (5-HT7; 5-HT7 affinity): 2550 nM | EC50 (h5-HT2A): 42 nM | Emax (h5-HT2A; HEK293, read-out: h5-HT2A Emax, percentage of the maximum response to 5-HT): 88 ± 1.5% | Ki (5-HT2A receptor [1]): 2.34 nM | Ki (human 5-HT2C receptor [2]): 1.02 nM | Ki (5-HT3): > 10000 nM | Ki (5-HT1A; 5-HT1A affinity): 1160 nM | Ki (5-ht5a; 5-ht5a affinity): 2290 nM | EC50 (r5-HT2C; r5-HT2C EC50, Ca2+ mobilization): 105 nM | Emax (r5-HT2C; read-out: r5-HT2C Emax): 104 ± 1% | Ki (5-HT6; 5-HT6 affinity): 257 nM | Emax (h5-HT2C; HEK293, read-out: h5HT2C Emax): 87 ± 5% | EC50 (h5-HT2C; h5HT2C EC50, Ca2+ mobilization): 57.6 nM | EC50 (r5-HT2A; r5-HT2A EC50, Ca2+ mobilization): 36 nM | Emax (r5-HT2A; read-out: r5-HT2A Emax, percentage of the maximum response to 5-HT): 65.6 ± 1.6% | Emax (h5-HT2B; HEK293, read-out: h5-HT2B Emax): 83 ± 3% | EC50 (h5-HT2B; h5-HT2B EC50, Ca2+ mobilization): 134 nM | EC50 (h5-HT2B; h5-HT2B pEC50 ± SEM, Ca2+ mobilization, NA = not active, Emax ≤ 15%): 151 nM | Ki (5-ht1e): > 10000 nM | Ki (5-HT1B; 5-HT1B affinity): > 10000 nM | Ki (5-HT2A receptor [3]): 0.38 nM | Ki (human 5-HT2C receptor [4]): 8.71 nM | max counts (Male C57BL/6J mice; SC): 23.2 | ED50 (Male C57BL/6J mice; Mus musculus, sc, read-out: ED50 mg/kg (95% CI), mouse head twitch): 2.31 mg/kg | activity in the HTR assay (active / inactive) (Male C57BL/6J mice; SC, doses up to 30 mg/kg): active | magnitude of peak effect × vehicle (Male C57BL/6J mice; SC, mouse head twitch): 3.0 × vehicle | maximally effective dose (Male C57BL/6J mice; SC, mouse head twitch): 10 mg/kg | Ki (5-HT1D): 423 nM
